From patent US10227344B2, “CK2 inhibitors, compositions and methods thereof” (Polaris Pharmaceuticals, Inc., priority 2016, dated 2019) come the findings set out here.

The target in one series is purified CK2α enzyme (Homo sapiens, UniProt P68400). The series is described as follows: CK2 Protein Kinase Inhibition Assay (coupled PK/LDH assay). Format: biochemical. The settings on record: CK2 enzyme 25 nM, 100 μM ATP, 37° C., Morrison equation. A digest of the protocol:
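Purified CK2α at 25 nM final, 1.5 mM peptide substrate, 100 μM ATP, pH 8.25 Tris buffer; compounds pre-incubated 10 min at 37° C. ADP coupled via PK/LDH to NADH loss at 340 nm over 30 min, 37° C. Ki from rate versus concentration by Morrison equation, triplicate points.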

Sequence of purified CK2α enzyme (P68400 whole entry): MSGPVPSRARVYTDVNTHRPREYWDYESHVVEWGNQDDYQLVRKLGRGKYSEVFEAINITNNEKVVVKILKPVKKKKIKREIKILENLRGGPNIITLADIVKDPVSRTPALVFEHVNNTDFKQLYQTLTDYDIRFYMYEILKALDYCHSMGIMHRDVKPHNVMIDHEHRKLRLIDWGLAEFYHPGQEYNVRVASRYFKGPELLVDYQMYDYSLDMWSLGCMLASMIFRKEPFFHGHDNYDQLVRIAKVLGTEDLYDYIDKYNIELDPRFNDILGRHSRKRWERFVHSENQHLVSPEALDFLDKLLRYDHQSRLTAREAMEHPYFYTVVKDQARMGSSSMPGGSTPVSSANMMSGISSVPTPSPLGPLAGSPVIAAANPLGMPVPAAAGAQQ

As a reminder, the melting point is the temperature of the solid-liquid transition. By Ki is commonly meant the equilibrium dissociation constant of an inhibitor or competing ligand from its target. As for `C[S+]([O-])Cc1cc(Nc2cc(NC3CC3)n3ncc(C#N)c3n2)ccc1C1=CCCNC1.O=C(O)C(F)(F)F` (racemic) [Example 53, (±)-7-(cyclopropylamino)-5-((3-((methylsulfinyl)methyl)-4-(1,2,5,6-tetrahydropyridin-3-yl)phenyl)amino)pyrazolo[1,5-a]pyrimidine-3-carbonitrile mono trifluoroacetic acid salt], the melting point lay within 126 to 130 °C. This compound displayed a Ki on purified CK2α enzyme of 2.5 to 10 nM.

For the compound `COc1ccc(Nc2cc(NC3CC3)n3ncc(C#N)c3n2)cc1CS(C)(=O)=O` [Example 18, 7-(Cyclopropylamino)-5-((4-methoxy-3-((methylsulfonyl)methyl)phenyl)amino)pyrazolo[1,5-a]pyrimidine-3-carbonitrile], the melting point lay within 233 to 235 °C. Besides, on purified CK2α enzyme, the Ki is < 2.5 nM.

Regarding `CS(=O)(=O)Cc1cc(Nc2cc(NC3CC3)n3ncc(C#N)c3n2)ccc1OC(F)F` [Example 20, 7-(Cyclopropylamino)-5-((4-(difluoromethoxy)-3-((methylsulfonyl)methyl)phenyl)amino)pyrazolo[1,5-a]pyrimidine-3-carbonitrile], the melting point was > 260 °C. Moreover, the inhibition constant (Ki) at purified CK2α enzyme was < 2.5 nM.

For the compound `CS(=O)(=O)Cc1cc(Nc2cc(NC3CC3)n3ncc(C#N)c3n2)ccc1OCCN.Cl` [Example 26, 5-((4-(2-aminoethoxy)-3-((methylsulfonyl)methyl)phenyl)amino)-7-(cyclopropylamino)pyrazolo[1,5-a]pyrimidine-3-carbonitrile hydrochloric acid salt], the melting point was 238 to 240 °C. The same compound showed a Ki on purified CK2α enzyme of 2.5 to 10 nM.

Regarding `CS(=O)(=O)Cc1cc(Nc2cc(NC3CC3)n3ncc(C#N)c3n2)ccc1N1CCC1` [Example 32, 5-((4-(Azetidin-1-yl)-3-((methylsulfonyl)methyl)phenyl)amino)-7-(cyclopropylamino)pyrazolo[1,5-a]pyrimidine-3-carbonitrile], the melting point was 220 to 222 °C. For the same compound, at purified CK2α enzyme, the Ki is < 2.5 nM.
